The structures appear in SMILES notation.

In this assay the target is T1, BCL6 (Homo sapiens, UniProt P41182).
T1 construct: HiBiT-tag knocked into endogenous BCL6 locus using CRISPR; endogenous in cells; host or cells: DHL-4_BCL6_HiBiT cells (CRISPR knock-in)
Kind of assay: BCL6_HiBiT degradation assay (2 h). As to conditions: DHL-4_BCL6_HiBiT cells, read-out: YCon (% remaining maximal effect). It is filed as cell-based. Summed up:
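DHL-4 cells carrying CRISPR HiBiT knock-in at endogenous BCL6, treated 2 h at 37 °C with 10-point 3-fold dilutions from 1-10 μM. BCL6 level read by Nano-Glo HiBiT lytic luminescence normalized to DMSO; four-parameter fit gives degradation EC50 and Yconstant (% remaining at maximal effect).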
(HiBiT is a short tag that completes a luciferase, so light tracks the accessible tagged protein.)
Regarding `C[C@@H]1C[C@@H](Nc2ccc3c(C4CCC(=O)NC4=O)nn(C)c3c2)CCN1c1ncc(Cl)c(Nc2ccc3c(c2)CC(=O)N3C)n1` (stereo partly drawn) [Example 23, 3-(6-(((2R,4S)-1-(5-chloro-4-((1-methyl-2-oxoindolin-5-yl)amino)pyrimidin-2-yl)-2-methylpiperidin-4-yl)amino)-1-methyl-1H-indazol-3-yl)piperidine-2,6-dione], the Percent BCL6 remaining at maximal degradation (Ycon) was over 60%.
Take `C[C@H]1C[C@@H](N(C)c2ccc3c(C4CCC(=O)NC4=O)nn(C)c3c2)CCN1c1ncc(Cl)c(Nc2ccc3c(c2)CC(=O)N3C)n1` (stereo partly drawn) [Example 24, 3-(6-(((2S,4S)-1-(5-chloro-4-((1-methyl-2-oxoindolin-5-yl)amino)pyrimidin-2-yl)-2-methylpiperidin-4-yl)(methyl)amino)-1-methyl-1H-indazol-3-yl)piperidine-2,6-dione]: the Percent BCL6 remaining at maximal degradation (Ycon) was over 60%.
The figure for `C[C@@H]1C[C@@H](N(C)c2ccc3c(C4CCC(=O)NC4=O)nn(C)c3c2)CCN1c1ncc(Cl)c(Nc2ccc3c(c2)CC(=O)N3C)n1` (stereo partly drawn) [Example 25, 3-(6-(((2R,4S)-1-(5-chloro-4-((1-methyl-2-oxoindolin-5-yl)amino)pyrimidin-2-yl)-2-methylpiperidin-4-yl)(methyl)amino)-1-methyl-1H-indazol-3-yl)piperidine-2,6-dione] is over 60%; for `C[C@@H]1CN(c2ncc(Cl)c(Nc3ccc4c(c3)CC(=O)N4C)n2)C[C@H](C)N1c1ccc2c(C3CCC(=O)NC3=O)nn(C)c2c1` (stereo partly drawn) [Example 26, 3-(6-((2S,6R)-4-(5-chloro-4-((1-methyl-2-oxoindolin-5-yl)amino)pyrimidin-2-yl)-2,6-dimethylpiperazin-1-yl)-1-methyl-1H-indazol-3-yl)piperidine-2,6-dione] it is over 60%; for `C[C@@H]1CN(c2ccc3c(C4CCC(=O)NC4=O)nn(C)c3c2)C[C@@H](C)N1c1ncc(Cl)c(Nc2ccc3c(c2)CC(=O)N3C)n1` (stereo partly drawn) [Example 28, 3-(6-((3R,5R)-4-(5-chloro-4-((1-methyl-2-oxoindolin-5-yl)amino)pyrimidin-2-yl)-3,5-dimethylpiperazin-1-yl)-1-methyl-1H-indazol-3-yl)piperidine-2,6-dione] it is over 60%.
The result for `C[C@H]1CN(c2ccc3c(C4CCC(=O)NC4=O)nn(C)c3c2)C[C@H](C)N1c1ncc(Cl)c(Nc2ccc3c(c2)CC(=O)N3C)n1` (stereo partly drawn) [Example 29, 3-(6-((3S,5S)-4-(5-chloro-4-((1-methyl-2-oxoindolin-5-yl)amino)pyrimidin-2-yl)-3,5-dimethylpiperazin-1-yl)-1-methyl-1H-indazol-3-yl)piperidine-2,6-dione] reads under 20%; that for `C[C@@H]1CN(c2ccc3c(C4CCC(=O)NC4=O)nn(C)c3c2)C[C@H](C)N1c1ncc(Cl)c(Nc2ccc3c(c2)CC(=O)N3C)n1` (stereo partly drawn) [Example 30, 3-(6-((3R,5S)-4-(5-chloro-4-((1-methyl-2-oxoindolin-5-yl)amino)pyrimidin-2-yl)-3,5-dimethylpiperazin-1-yl)-1-methyl-1H-indazol-3-yl)piperidine-2,6-dione], over 60%; that for `CN1C(=O)Cc2cc(Nc3nc(N4CCCC(Nc5ccc6c(C7CCC(=O)NC7=O)nn(C)c6c5)CC4)ncc3Cl)ccc21` (stereo not drawn) [Example 31, 3-(6-((1-(5-chloro-4-((1-methyl-2-oxoindolin-5-yl)amino)pyrimidin-2-yl)azepan-4-yl)amino)-1-methyl-1H-indazol-3-yl)piperidine-2,6-dione], over 60%.
Take `CN1C(=O)Cc2cc(Nc3nc(N4CCCN(c5ccc6c(C7CCC(=O)NC7=O)nn(C)c6c5)CC4)ncc3Cl)ccc21` (stereo not drawn) [Example 32, 3-(6-(4-(5-chloro-4-((1-methyl-2-oxoindolin-5-yl)amino)pyrimidin-2-yl)-1,4-diazepan-1-yl)-1-methyl-1H-indazol-3-yl)piperidine-2,6-dione]: the Percent BCL6 remaining at maximal degradation (Ycon) is over 60%.

The values are drawn from US12404239B2, “Modulators of BCL6 as ligand directed degraders” (Celgene Corporation, priority 2022, dated 2025).
